Data taken from patent publication US20190365728A1, “PHARMACEUTICAL COMPOSITION COMPRISING BETAHISTINE” (Otolanum AG, priority 2017, published 2019).
Marks after values point to notes of the source that are not given here. One block for each compound: values may come before it.

What was measured:
[1] = Minor metabolites HEP and AEP in human plasma (LC-MS/MS); type: in vivo
Method: For the first time it was also possible to determine the two minor betahistine metabolites aminoethylpyridine (AEP) and hydroxyethylpyridine (HEP) in human plasma.
HEP and AEP concentrations were determined using liquid chromatographic tandem mass spectrometry (SCIEX API 4000) with a validated method. HEP-d4 and AEP-d4 dihydrochloride served as internal standards. […] The limit of quantitation was 1 ng/mL in case of HEP and 10 pg/mL in case of AEP.

[2] = metabolite of betahistine, background statement; cited from earlier work
[3] = Pharmacokinetic profile in beagle dogs after single oral, intranasal and intravenous betahistine; type: in vivo
Method: In this study, the pharmacokinetic profile of betahistine was evaluated after a single dose administration of betahistine in male and female beagle dogs (age 5-7 months; weight of 5-11 kg, within a range of 3 kg for each sex) for three routes of administration: oral, intranasal, and intravenous.
On Day 1 of the study, betahistine (BH) was delivered orally at a dose of 12 mg/kg, 24 mg/kg, or 48 mg/kg. Each treatment group comprised 8 animals (4 males and 4 females). For pharmacokinetic assessment, plasma samples were collected prior to dosing, and then at 5, 10, 20 and 30 min, 1, 2, 3, 6, 24 hours after dosing.
On Day 8 of the study, the animals that received oral BH at a dose of 12 mg/kg were administered the test betahistine composition intranasally at a dose of 40 mg betahistine dihydrochloride; the animals that received oral BH at a dose of 24 mg/kg were administered the test betahistine composition intranasally at a dose of 80 mg betahistine dihydrochloride; and the animals that received oral BH at a dose of 48 mg/kg were administered the test betahistine composition intranasally at a dose of 120 mg betahistine dihydrochloride. The test betahistine composition was delivered intranasally in a single dose via an Aptar nasal spray pump device at a total dose level of 40, 80 and 120 mg of betahistine dihydrochloride. Plasma samples were collected prior to dosing, and then at 5, 10, 20 and 30 min, 1, 2, 3, 6, 24 hours after dosing.
On Day 15 of the study, the animals that received oral BH at a dose of 12 mg/kg and the test betahistine composition intranasally at a dose of 40 mg betahistine dihydrochloride were administered a bolus intravenous injection of betahistine at a dose of 0.44 mg/kg. Plasma samples were collected prior to dosing, and then at 5, 10, 20 and 30 min, 1, 2, 3, 6, 24 hours after dosing.
Betahistine 13CD3 dihydrochloride and 2-pyridylacetic acid-D4 hydrochloride were used as respective internal standards. The calibration range for betahistine was 0.05-250 ng/mL and for 2-PAA 2.00-3000 ng/mL using a plasma sample volume of 0.50 mL.
For determination of betahistine, the method involved liquid-liquid extraction, for 2-PAA, the method involved protein precipitation. Plasma samples were prepared for betahistine by extraction under basic conditions with an organic solvent, then the organic phase was dried, reconstituted and transferred for LC/MS-MS analysis. […] Sample analysis was performed using reversed phase chromatography.

[4] = Single-dose and 14-day repeat-dose toxicology/toxicokinetic study of intranasal betahistine in beagle dogs; type: in vivo
Method: Sample analysis was conducted using reversed phase chromatography.

[5] = Relative bioavailability of intranasal vs oral betahistine in humans (Example 3 vs Barak et al.); type: in vivo; conditions: human
Method: For the calculation of the relative bioavailability of intranasal betahistine compared to peroral betahistine, the area under the concentration-time curve (AUC) determined in Example 3 was compared to the AUC determined in a study with oral betahistine in healthy volunteers described in Barak et al. (Journal of Psychopharmacology, 2016, Vol. 30(3) 237-241). In brief, in this study, forty-eight healthy women were recruited and randomized to receive per os (i.e. orally) either betahistine 144 mg/day (48 mg t.i.d.) or matching placebo for 4 weeks. Their mean weight was 60.2 kg in the active-treated group (n=24) and 59.8 kg in the placebo group (n=24). Study medication (betahistine or matching placebo) was administered at least 30 minutes prior to eating. On Day 8, blood samples of 6 mL each were collected at 8 am, and 30, 60, 150 and 300 minutes thereafter. Plasma concentrations of betahistine and its metabolite 2-PAA were determined by high-performance liquid chromatography.

clinical = conditions: human
Method: The safety and pharmacokinetic profile of intranasal betahistine with single and multiple dosing was evaluated in a single-site randomized, placebo-controlled Phase I dose-escalation trial. 72 healthy male and female subjects aged between 18 and 60 years and with a BMI of 18.5 to 30 kg/m^2 were enrolled. In one group, the subjects received single dose intranasal betahistine in four dose cohorts of 10, 20, 40 or 60 mg or multiple dose intranasal betahistine (three times daily for 3 days) in four dose cohorts of 5, 10, 20 or 40 mg (double blind). Subjects received first the single dose and then, following a wash-out period, the multiple doses with the exception of the 5 mg and 60 mg doses which were tested only under one dose regimen. For reference purposes, another group of subjects received single dose oral betahistine in four dose cohorts at 48, […], 192 or 384 mg (single blind).
With each actuation of the nasal spray, 100 μL were delivered (1 actuation at 50 mg/mL for 5 mg and at 200 mg/mL for 20 mg, respectively; 2 actuations at 50 mg/mL for 10 mg and at 200 mg/mL for 40 mg, respectively, into each nostril; 3 actuations at 200 mg/mL for 60 mg with 2 into one nostril and 1 into the other) while the subject was in an upright position.
Serial blood samples were collected at various time points, starting at pre-dose and over a maximum of 72 hours following dosing.
All plasma samples were stored at −95 to −65° C. until all samples had been collected and sent in two separate shipments for analysis.

[6] = Single ascending-dose clinical trial of intranasal betahistine in healthy volunteers: safety and plasma pharmacokinetics; conditions: human; for tmax: median (range)
Method: The safety and pharmacokinetic profile of intranasal betahistine was further evaluated in a double-blind, randomized, placebo-controlled, single ascending-dose clinical trial involving a total of 32 healthy male and female volunteers. The main inclusion criteria were that subjects had to be aged 18-45 years and show a body mass index within the range of 18-30 kg/m^2. Subjects were required to fast for 8 hours prior to study drug administration and for 2 hours post-dose.
The betahistine was supplied as a 50 and 200 mg/mL solution in a HDPE bottle and spray pump pack (Aptar Classic Line) that delivers an accurate 100 μL per actuation. The study drug was delivered into the right nostril of subjects while they were in a supine position. For the 5 and 20 mg doses, one application of 50 and 200 mg/mL, respectively, was needed, whereas for the 10 and 40 mg doses, two applications of 50 and 200 mg/mL were required.
Serial blood samples were collected through 24 hours, following dosing on Day 1, at Day 4 and Day 7 to determine concentrations of betahistine and its main metabolite, 2-PAA in plasma. Plasma samples were assayed for BH content using validated procedures and methods. Blood samples (6 mL) were collected into tubes containing K2EDTA and were centrifuged at approximately 2000 g for 10 minutes at +4° C. and the resultant plasma transferred into 2 clean, labelled 2 mL cryovials. All plasma samples were stored at −70° C. or below until all samples had been collected and sent as a single batch for analysis. Aliquot 1 and 2 were sent as separate shipments. Concentrations were determined using liquid chromatographic tandem mass spectrometry (LC-MS/MS; SCIEX API 5000 for betahistine and SCIEX API 4000 for 2-PAA) with a validated method. Betahistine-^13CD3 dihydrochloride and 2-PAA-D4 hydrochloride served as internal standards. The standard calibration range—using a plasma sample volume of 0.2 and 0.1 mL, respectively—for betahistine was 10 to 800 pg/mL and for 2-PAA it was 2 to 2000 ng/mL. The limit of quantitation was 10 pg/mL for betahistine and 2.0 ng/mL for 2-PAA.
In case of betahistine, the method involved a liquid-liquid extraction; in case of 2-PAA it involved protein precipitation. For betahistine, plasma samples were extracted under basic conditions with an organic solvent; the organic phase was dried and reconstituted in reconstitution solvent. Approximately 0.120 mL of the aqueous layer was transferred into polypropylene vials for LC-MS/MS analysis. For 2-PAA plasma samples were precipitated with a mixture of organic solvents, supernatant was diluted and 0.120 mL was transferred into polypropylene vials for LC-MS/MS analysis. Sample analysis was conducted using reversed phase chromatography.
For each subject who completed the study, plasma concentration-time data of betahistine and 2-PAA were used for the calculation of the following pharmacokinetic parameters:
Dose normalized parameters Cmax/Dose and AUC/Dose were also calculated.

SMILES: NCCc1ccccn1 [AEP, aminoethylpyridine]
plasma concentration ([1]; AEP, human, intranasal betahistine 60 mg): barely detectable

median tmax ([1]; in vivo): 15 min
SMILES: OCCc1ccccn1 [HEP, hydroxyethylpyridine]

Tmax, median (min-max) ([3]; male, beagle, dog, in vivo): 0.13 (0.08-0.33) hr
SMILES: O=C(O)Cc1ccccn1 [Variant 2-PAA, 2-pyridylacetic acid]
pharmacological activity [2]: no pharmacological activity
last measurable values ([4]; both, beagle, dog, in vivo): 24 hours post-dose

SMILES: CNCCc1ccccn1 [betahistine]
relative bioavailability of oral vs. intranasal administration ([5]; Barak et al. oral vs Example 3 intranasal): approximately 2.4%
bioavailability intranasal relative to oral ([5]; Example 3 single intranasal 5-40 mg vs Barak et al. oral 48 mg): 20-40 times
Rel. Bioavail. intranasal relative to oral ([5]; intranasal 40 mg vs oral 48 mg (Barak et al.)): 41.1
apparent half-life (clinical; both, in vivo): less than 1 h
exposure AUC0-6 unadjusted for dose, intranasal vs oral 48 mg (clinical; both, in vivo): 5-29 fold
nasal pain, share of administrations (clinical; both, in vivo): 4%
post-nasal drip, share of administrations (clinical; both, in vivo): 5%
runny nose, share of administrations (clinical; both, in vivo): 6%
time of maximum concentrations (clinical; both, in vivo): 5 to 20 min
accumulation over time (clinical; both, in vivo, 3 days): No accumulation
time of maximum concentrations (clinical; both, in vivo, po): 15 to 30 min
tmax (clinical; both, in vivo, tmax, Median (range)): 15 min
dose up to which safety and tolerability could be shown (clinical; intranasal multiple dosing three times daily over three days): up to 40 mg
dose up to which safety and tolerability could be shown (clinical; intranasal single doses): up to 60 mg
salivation ([3]; both, beagle, dog, in vivo): noted in most animals
sneezing, animals affected ([3]; both, beagle, dog, in vivo): 2/8
tolerability ([3]; dogs, single intranasal 40-120 mg): well tolerated
Cmax ([3]; female, beagle, dog, in vivo, iv, 0.44 mg/kg): 4.37 ± 8.84 ng/mL
tolerability ([4]; beagle dogs, intranasal, single dose 4-80 mg and 14-day repeat dose 12-240 mg/day): well tolerated
body weights, clinical pathology and gross necropsy findings ([4]; both, beagle, dog, in vivo): unremarkable
microscopic findings ([4]; both, beagle, dog, in vivo): No adverse treatment-related microscopic findings
decline of plasma concentration ([4]; both, beagle, dog, in vivo, 1 h): more than 90%
peak concentration in plasma ([6]; betahistine, single intranasal 20 mg): 4.1 ng/mL
tmax ([6]; single intranasal 5 mg): 0.208 (0.08-0.33) hr
t1/2 ([6]; single intranasal 10 mg, mean, n=3): 0.883 ^a hr
tmax ([6]; single intranasal 10 mg): 0.167 (0.08-0.17) hr
tmax ([6]; single intranasal 40 mg): 0.125 (0.08-0.27) hr
